Measured values reported in patent US4619925A, “3-Propenyl cephalosporin derivatives” (priority 1985, dated 1986).
≈ marks a conversion by molar mass, not a printed value. Where two headings read alike, the source gives them in different places.

Key:
H. influenzae A20177 = experiment: In vitro activity against fastidious bacteria; type: cell-based; conditions: Haemophilus influenzae; H. influenzae A20177; ampicillin-sensitive (ABPC-S); read-out: MIC
Description: (§1) Table 5 contains comparative data for in vitro antibacterial activity against fastidious bacteria.

H. influenzae A20193 = experiment: In vitro activity against fastidious bacteria; type: cell-based; conditions: Haemophilus influenzae; H. influenzae A20193; ampicillin-sensitive (ABPC-S); read-out: MIC
Description: as §1

H. influenzae A21523 = experiment: In vitro activity against fastidious bacteria; type: cell-based; conditions: Haemophilus influenzae; H. influenzae A21523; ampicillin-sensitive (ABPC-S); read-out: MIC
Description: as §1

H. influenzae A22481 = experiment: In vitro activity against fastidious bacteria; type: cell-based; conditions: Haemophilus influenzae, ampicillin-resistant (ABPC-R)
Description: as §1

H. influenzae A22482 = experiment: In vitro activity against fastidious bacteria; type: cell-based; conditions: Haemophilus influenzae
Description: as §1

H. influenzae A22491 = experiment: In vitro activity against fastidious bacteria; type: cell-based; conditions: Haemophilus influenzae, ampicillin-resistant (ABPC-R)
Description: as §1

H. influenzae A9729 = experiment: In vitro activity against fastidious bacteria; type: cell-based; conditions: Haemophilus influenzae; H. influenzae A9729; ampicillin-sensitive (ABPC-S); read-out: MIC
Description: as §1

H. influenzae A9833 = experiment: In vitro activity against fastidious bacteria; type: cell-based; conditions: Haemophilus influenzae; H. influenzae A9833; ampicillin-sensitive (ABPC-S); read-out: MIC
Description: as §1

N. gonorrheae A15112 = experiment: In vitro activity against fastidious bacteria; type: cell-based; conditions: N. gonorrheae A15112; read-out: MIC
Description: as §1

N. gonorrheae A20154 = experiment: In vitro activity against fastidious bacteria; type: cell-based; conditions: N. gonorrheae A20154; read-out: MIC
Description: as §1

N. gonorrheae A20155 = experiment: In vitro activity against fastidious bacteria; type: cell-based; conditions: N. gonorrheae A20155; read-out: MIC
Description: as §1

N. meningitidis A20048 = experiment: In vitro activity against fastidious bacteria; type: cell-based; conditions: Neisseria meningitidis; N. meningitidis A20048; read-out: MIC
Description: as §1

N. meningitidis A20049 = experiment: In vitro activity against fastidious bacteria; type: cell-based; conditions: Neisseria meningitidis; N. meningitidis A20049; read-out: MIC
Description: as §1

N. meningitidis A21487 = experiment: In vitro activity against fastidious bacteria; type: cell-based; conditions: Neisseria meningitidis; N. meningitidis A21487; read-out: MIC
Description: as §1

N. meningitidis A21495 = experiment: In vitro activity against fastidious bacteria; type: cell-based; conditions: Neisseria meningitidis; N. meningitidis A21495; read-out: MIC
Description: as §1

N. meningitidis A21497 = experiment: In vitro activity against fastidious bacteria; type: cell-based; conditions: Neisseria meningitidis; N. meningitidis A21497; read-out: MIC
Description: as §1

S. pneumoniae A15069 = experiment: In vitro activity against fastidious bacteria; type: cell-based; conditions: Streptococcus pneumoniae; S. pneumoniae A15069; read-out: MIC
Description: as §1

S. pneumoniae A20759 = experiment: In vitro activity against fastidious bacteria; type: cell-based; conditions: Streptococcus pneumoniae; S. pneumoniae A20759; read-out: MIC
Description: as §1

S. pneumoniae A9585 = experiment: In vitro activity against fastidious bacteria; type: cell-based; conditions: Streptococcus pneumoniae; S. pneumoniae A9585; read-out: MIC
Description: as §1

S. pneumoniae Type III = experiment: In vitro activity against fastidious bacteria; type: cell-based; conditions: Streptococcus pneumoniae; S. pneumoniae Type III; read-out: MIC
Description: as §1

S. pneumoniae Type II = experiment: In vitro activity against fastidious bacteria; type: cell-based; conditions: Streptococcus pneumoniae; S. pneumoniae Type II; read-out: MIC
Description: as §1

S. pyogenes A15040 = experiment: In vitro activity against fastidious bacteria; type: cell-based; conditions: Streptococcus pyogenes; S. pyogenes A15040; read-out: MIC
Description: as §1

S. pyogenes A20065 = experiment: In vitro activity against fastidious bacteria; type: cell-based; conditions: Streptococcus pyogenes; S. pyogenes A20065; read-out: MIC
Description: as §1

S. pyogenes A20201 = experiment: In vitro activity against fastidious bacteria; type: cell-based; conditions: Streptococcus pyogenes; S. pyogenes A20201; read-out: MIC
Description: as §1

S. pyogenes A9604 = experiment: In vitro activity against fastidious bacteria; type: cell-based; conditions: Streptococcus pyogenes; S. pyogenes A9604; read-out: MIC
Description: as §1

S. pyogenes Dick = experiment: In vitro activity against fastidious bacteria; type: cell-based; conditions: Streptococcus pyogenes; S. pyogenes Dick; read-out: MIC
Description: as §1

S. pyogenes s-23 = experiment: In vitro activity against fastidious bacteria; type: cell-based; conditions: Streptococcus pyogenes, S23; S. pyogenes s-23; read-out: MIC
Description: as §1

[1] = test system: Gn-Ia organisms (Gram-negative bacteria sensitive to ampicillin and cephalothin); experiment: In vitro activity, agar dilution, group of five strains; type: cell-based
Description: (§2) Each of these groups of organisms is constituted of five individual strains of microorganism. The Gp-Ia organisms are Gram-positive staphylococci which are sensitive to penicillin. The Gp-Ib organisms are Gram-positive staphylococci which are resistant to penicillin and produce penicillinase. The Gn-Ia organisms are Gram-negative bacteria which are sensitive to ampicillin and cephalothin. The Gn-Ib organisms are Gram-negative bacteria which are resistant to ampicillin and cephalothin.

[2] = test system: Gp-Ia organisms (Gram-positive staphylococci sensitive to penicillin); experiment: as above; type: cell-based
Description: as §2

[3] = test system: Gp-Ib organisms (Gram-positive staphylococci resistant to penicillin); experiment: as above; type: cell-based
Description: as §2

fastidious bacteria = experiment: In vitro antibacterial activity against fastidious bacteria (overall); type: cell-based
Description: as §1

[4] = test system: Gram-positive bacteria, Gram-negative bacteria and fastidious bacteria; experiment: Antibacterial activity (summary statement); type: cell-based
[5] = test system: S. aureus Smith and E. coli Juhl; experiment: Protective effect in mice infected with a lethal inoculum (overall); type: in vivo
Description: The data in Table 2 are results of protective doses (PD50) for mice infected with a lethal inoculum of bacteria. Two different bacteria were employed in the studies, one a Gram-positive organism (S. aureus Smith) and the other a Gram-negative organism (E. coli Juhl). The PD50 is that dose which, when administered to a group of injected mice, results in 50% survival after five days. Normally untreated infected mice die within three days following injection of the lethal inoculum.

| SMILES | MIC (H. influenzae A20177) [µg/mL] | MIC (H. influenzae A20193) [µg/mL] | MIC (H. influenzae A21523) [µg/mL] | MIC (H. influenzae A22481) [µg/mL] | MIC (H. influenzae A22491) [µg/mL] | MIC (H. influenzae A9729) [µg/mL] | MIC (H. influenzae A9833) [µg/mL] | MIC (N. gonorrheae A15112) [µg/mL] | MIC (N. gonorrheae A20154) [µg/mL] | MIC (N. gonorrheae A20155) [µg/mL] | MIC (N. meningitidis A20048) [µg/mL] | MIC (N. meningitidis A20049) [µg/mL] | MIC (N. meningitidis A21487) [µg/mL] | MIC (N. meningitidis A21495) [µg/mL] | MIC (N. meningitidis A21497) [µg/mL] | MIC (S. pneumoniae A15069) [µg/mL] | MIC (S. pneumoniae A20759) [µg/mL] | MIC (S. pneumoniae A9585) [µg/mL] | MIC (S. pneumoniae Type III) [µg/mL] | MIC (S. pneumoniae Type II) [µg/mL] | further results |
| --- | --- | --- | --- | --- | --- | --- | --- | --- | --- | --- | --- | --- | --- | --- | --- | --- | --- | --- | --- | --- | --- |
| C/C=C\C1=C(C(=O)O)N2C(=O)C(NC(=O)[C@H](N)c3ccc(O)cc3)[C@H]2SC1 (stereo partly drawn) [BMY-28100, 7-[D-2-amino-2-(4-hydroxyphenyl)acetamido]-3-[(Z)-1-propen-1-yl]-3-cephem-4-carboxylic acid] | 0.8 (≈ 2.05 µM) | 0.8 (≈ 2.05 µM) | 0.8 (≈ 2.05 µM) | 0.8 (≈ 2.05 µM) | 0.8 (≈ 2.05 µM) | 0.8 (≈ 2.05 µM) | 0.8 (≈ 2.05 µM) | 0.8 (≈ 2.05 µM) | 0.8 (≈ 2.05 µM) | 0.8 (≈ 2.05 µM) | 0.4 (≈ 1.03 µM) | 0.4 (≈ 1.03 µM) | 0.4 (≈ 1.03 µM) | 0.4 (≈ 1.03 µM) | 0.4 (≈ 1.03 µM) | 0.4 (≈ 1.03 µM) | 0.4 (≈ 1.03 µM) | 0.1 (≈ 0.257 µM) | 0.2 (≈ 0.514 µM) | 0.1 (≈ 0.257 µM) | MIC (H. influenzae A22482; H. influenzae A22482, ampicillin-sensitive (ABPC-S), read-out: MIC): 0.8 µg/mL (≈ 2.05 µM); MIC (S. pyogenes A15040): 0.05 µg/mL (≈ 0.128 µM); MIC (S. pyogenes A20065): 0.05 µg/mL (≈ 0.128 µM); MIC (S. pyogenes A20201): 0.05 µg/mL (≈ 0.128 µM); MIC (S. pyogenes A9604): 0.05 µg/mL (≈ 0.128 µM); MIC (S. pyogenes Dick): 0.05 µg/mL (≈ 0.128 µM); MIC (S. pyogenes s-23): 0.05 µg/mL (≈ 0.128 µM); activity relative to cephalexin and cefaclor [1]: more active than cephalexin and slightly better than cefaclor |
| C/C=C\C1=C(C(=O)O)N2C(=O)C(NC(=O)[C@H](N)c3cccc(O)c3)[C@H]2SC1 (some centres unmarked) [BMY-28272, 7-[(D)-2-amino-2-(3-hydroxyphenyl)acetamido]-3-[(Z)-1-propenyl]-3-cephem-4-carboxylic acid] | 0.8 (≈ 2.05 µM) | 0.8 (≈ 2.05 µM) | 0.8 (≈ 2.05 µM) | 0.8 (≈ 2.05 µM) | 0.8 (≈ 2.05 µM) | 0.4 (≈ 1.03 µM) | 0.4 (≈ 1.03 µM) | 0.4 (≈ 1.03 µM) | 0.8 (≈ 2.05 µM) | 0.4 (≈ 1.03 µM) | 0.8 (≈ 2.05 µM) | 0.8 (≈ 2.05 µM) | 0.8 (≈ 2.05 µM) | 0.4 (≈ 1.03 µM) | 0.4 (≈ 1.03 µM) | 0.4 (≈ 1.03 µM) | 0.4 (≈ 1.03 µM) | 0.1 (≈ 0.257 µM) | 0.4 (≈ 1.03 µM) | 0.1 (≈ 0.257 µM) | MIC (H. influenzae A22482; A22482): 0.4 µg/mL (≈ 1.03 µM); MIC (S. pyogenes A15040): 0.05 µg/mL (≈ 0.128 µM); MIC (S. pyogenes A20065): 0.05 µg/mL (≈ 0.128 µM); MIC (S. pyogenes A20201): 0.05 µg/mL (≈ 0.128 µM); MIC (S. pyogenes A9604): 0.05 µg/mL (≈ 0.128 µM); MIC (S. pyogenes Dick): 0.05 µg/mL (≈ 0.128 µM); MIC (S. pyogenes s-23): 0.05 µg/mL (≈ 0.128 µM); activity relative to cephalexin and cefaclor [1]: more active than cephalexin and slightly better than cefaclor; activity relative to BMY-28100 [2]: same as BMY-28100; activity relative to cephalexin and cefaclor [2]: two or four times more active than cephalexin and cefaclor; activity relative to BMY-28100 [3]: slightly less active than BMY-28100; activity relative to cephalexin or cefaclor [3]: three times more active than cephalexin or cefaclor; activity relative to BMY-28100 (fastidious bacteria): almost comparable or better than BMY-28100; activity relative to cefaclor or cephalexin (fastidious bacteria): much better than cefaclor or cephalexin; activity against Gram-positive bacteria [4]: strong activity against Gram-positive bacteria; spectrum of activity against Gram-negative and fastidious bacteria relative to cephalexin and cefaclor [4]: improved spectrum of activity against Gram-negative bacteria and fastidious bacteria relative to cephalexin and cefaclor; effectiveness in vivo [5]: effectiveness of BMY-28272 in vivo is confirmed |
